Data reported in patent US20260069606A1, “Oxidative Stress and Diabetes Treatment with Cobinamide” (The Regents of the University of California, priority 2022, published 2026).

How the values were obtained:
[1] = second order; literature values; cited from earlier work
[2] = literature values; not strictly comparable with third-order constants; cited from earlier work
[3] = second order; literature values; cited from earlier work; remark: listed apart in the source
[4] = literature values, cited from earlier work
[5] = tested on: H9c2 rat embryonal cardiomyocytes; assay: Mitochondrial superoxide content, MitoSOX Red fluorescence; format: cell-based; conditions: H9c2, 5 μM rotenone 30 min, drugs at 2.5 μM
Protocol: (§1) FIGS. 3A-3H. […] FIGS. 3A-3B. […] FIG. 3A. […] FIG. 3B. […] FIGS. 3C-3D. […] FIG. 3D. […] FIGS. 3E-3F. […] FIG. 3E. Representative blots are shown. […] FIG. 3F. […] FIG. 3G. […] FIG. 3H.
H9c2 cells were plated on glass cover slips in 24 well dishes, and 16 h later the medium was changed to phenol red-free DMEM supplemented with 20 mM Hepes, 0.1% fetal bovine serum, and 0.5% bovine serum albumin. […] MitoSOX Red is a dihydroethidium derivative containing triphenyl-phosphonium, which localizes it to respiring mitochondria. Its reaction with O2·^− yields 2-hydroxy-mitoethidium (2-OH-Mito-E″), whereas its reaction with other oxidative species yields mitoethidium (Mito-E^+)^67. These two oxidative derivatives have overlapping fluorescence spectra, but they can be distinguished by high performance liquid chromatography (HPLC)^68. Rotenone increased 2-OH-Mito-E^+ about two-fold, without increasing Mito-E^+. Thus, any increased fluorescence observed on treating cells with rotenone could be ascribed to an increase in 2-OH-Mito-E^+, and decreased fluorescence by an anti-oxidant in rotenone-treated cells was likely from a decrease in 2-OH-Mito-E^+.
(§2) The cells were then washed once with PBS, placed back in the DMEM experimental medium, and incubated with the indicated drugs for 30 min. At the end of the incubation period, nuclei of both the MitoSOX Red- and JC-1-treated cells were stained with […] 4′,6-diamidino-2-phenyl-indole (DAPI) for 3 min, washed once with PBS, and returned to the DMEM experimental medium. The cover slips were removed from the wells, mounted in the DMEM experimental medium, and red (MitoSOX Red and JC-1 aggregates), green (JC-1 monomers), and blue (DAPI) fluorescence intensity was assessed using a Keyence BZ-X700 fluorescence microscope at the following paired excitation/emission wavelengths, respectively: 560/630, 490/525, and 360/460 nm.
To assess if cobinamide reduces oxidative stress in cells and to compare its […] efficacy to that of cobalamin, imisopasem, and MnTBAP, several sets of experiments were performed. First, whether cobinamide reduces mitochondrial-generated O2·^− was evaluated using the fluorescent probe MitoSOX Red. H9c2 rat embryonal cardiomyocytes were treated with rotenone, an inhibitor of complex I, to increase mitochondrial O2·^−. […] Monitoring the UV-visible spectrum of cobinamide is a sensitive means to assess ligand binding^38.

H9c2 cells = assay: Mitochondrial membrane potential, JC-1 red to green fluorescence; format: cell-based, rat; conditions: H9c2, 5 μM rotenone 30 min, drugs at 2.5 μM
Protocol: as §1, §2
Increased mitochondrial O2·^− by rotenone would be expected to reduce the mitochondrial membrane potential (ΔΨm), due in part to activation of uncoupling proteins^39. […] Rotenone caused an almost complete loss of red fluorescence and a striking increase in green fluorescence in the cells, indicating a marked decrease in ΔΨm (FIGS. 3C-3D).

[6] = tested on: Jun N-terminal kinase (JNK) phosphorylation in H9c2 cells; assay: H2O2-induced JNK phosphorylation, immunoblotting; format: cell-based, rat; conditions: H9c2, 100 μM H2O2 30 min, drugs at 100 μM
Source text: as §1

COS-7 cells = conditions: COS-7, 1 mM paraquat 3 h, 100 μM drug, counted 48 h later
Protocol: as §1
Finally, whether cobinamide could alleviate the effects of oxidative stress induced by yet another mechanism in a different cell type was tested using paraquat-treated COS-7 cells. Paraquat generates O2·^− through a redox cycling mechanism and increases both intracellular O2·^− and H2O2^42.

D. melanogaster = assay: Survival of fruit flies during paraquat poisoning; format: in vivo; conditions: 20 mM paraquat with 0.8 mM drug in food, over 7 d
Protocol: The number of live flies was counted each day for 7 d. The experiment was repeated seven times, for a total of 70 flies per condition. The percent surviving flies was calculated; error bars represent standard deviations and are shown in one direction only for sake of clarity. […] Chi, cobinamide in Panel A and histidyl-cobinamide in Panels B-K; Imp, imisopasem; MnTP, MnTBAP; CbL, cobalamin; DNPH, 2,4-dinitrophenylhydrazine; ND, non-diabetic; D, diabetic; Veh, vehicle.
To test cobinamide in a whole animal, D. melanogaster was selected for initial studies, and oxidative stressed was increased in the files by administering paraquat in their food. Cobinamide was again compared to imisopasem, MnTBAP, and hydroxocobalamin, all administered in food.

[7] = mouse, in vivo
Protocol: It seemed possible, therefore, that the cobinamide administered to the mice could have increased their blood pressure, since ·NO is a potent vasodilator. Because diabetes can increase blood pressure, these studies were performed on a parallel set of non-diabetic mice of the same strain and sex and using the same concentration of histidyl-cobinamide in the drinking water as in the above-described studies.

Compound	Oxidation in the presence of oxygen	Rate constant, reaction with superoxide (O2·^−), published [1] [M⁻¹ s⁻¹]	Rate constant, reaction with hydrogen peroxide (H2O2), published [2]	Rate constant, reaction with peroxynitrite (ONOO^−), published [3]	Ka, binding of nitric oxide (·NO), published [4]	MitoSOX red fluorescence in rotenone-treated cells [5]	JC-1 red to green fluorescence ratio (ΔΨm) in rotenone-treated cells (H9c2 cells)	JNK phosphorylation in H2O2-treated cells [6]	Effect on cell growth of paraquat-treated cells (COS-7 cells)	Effect on mortality of paraquat-exposed flies (D. melanogaster)	Rate constant, reaction with nitric oxide (·NO), published ([4]; second order)	Blood pressure [7]
C/C1=C2/[N-][C@H]([C@H](CC(N)=O)[C@@]2(C)CCC(=O)NC[C@H](C)OP(=O)([O-])O[C@H]2[C@@H](O)[C@@H](n3cnc4cc(C)c(C)cc43)O[C@@H]2CO)[C@]2(C)N=C(/C(C)=C3N=C(/C=C4N=C1[C@@H](CCC(N)=O)C\4(C)C)[C@@H](CCC(N)=O)[C@]\3(C)CC(N)=O)[C@@H](CCC(N)=O)[C@]2(C)CC(N)=O.[Co+2] (stereo in doubt) [Cobalamin(II)]	rapidly oxidized back to cobalamin(III)	3.8e+08	1.4 × 10^2	3.7 × 10^5 (14) M^−1 s^−1	Ka: 1.5 × 10^8 (51) M^−1							
O=C(O)c1ccc(-c2c3nc(c(-c4ccc(C(=O)O)cc4)c4ccc([n-]4)c(-c4ccc(C(=O)O)cc4)c4nc(c(-c5ccc(C(=O)O)cc5)c5ccc2[n-]5)C=C4)C=C3)cc1.[Mn+3] [MnTBAP, manganese(III)tetrakis(4-benzoicacid)porphyrin]		~4.0	5.8	~1 × 10^5 (27) M^−1 s^−1		reduced the fluorescent signal substantially	modest degrees of recovery	small non-significant effects	neither imisopasem nor MnTBAP had an effect	lesser effect	No activity (28)	
histidyl-cobinamide												No difference in the blood pressure
